According to patent US20180078516A1 (InnovaZone Labs LLC, priority 2016, published 2018):

Tests used:
[1] = cited from earlier work
[2] = cited from earlier work; remark: listed apart in the source
[3] = clinical; details: human, in vivo, po, 400 mg

For `CC(C)Cc1ccc(C(C)C(=O)O)cc1` (racemic) [Ibuprofen, (R,S)-2-(4-isobutylphenyl) propionic acid], the solubility in water [1] is given as “practically insoluble” and the “onset of therapeutic effects after oral administration” value [2] is given as “between 45 minutes and one hour”.
Compound `CC(C)Cc1ccc(C(C)C(=O)O)cc1` (racemic) [ibuprofen sodium dihydrate, (R,S)-2-(4-isobutylphenyl) propionate sodium] has a Tmax [3] of about 35 min.
